EPA's ToxRefDB 2

Columns and labels:
[1] = system: rabbit; details: Prenatal developmental toxicity study, himalayan, Oral, Gavage/Intubation, dose end: 19 GD
[2] = system: rat; details: Carcinogenicity, wistar, Oral, Feed, dose end: 104 week, group: systemic
[3] = system: dog; details: Subchronic oral toxicity in nonrodent, beagle, Feed, dose end: 90 day, group: systemic, systemic / clinical chemistry / alanine aminotransferase (alt/sgpt) / alanine aminotransferase (alt/sgpt) + systemic / clinical chemistry / …
[4] = system: rat; details: Chronic toxicity, wistar, Oral, Feed, dose end: 12 month, group: systemic
[5] = system: rat; details: Subchronic oral toxicity in rodents, wistar, Feed, dose end: 90 day, group: systemic
[6] = system: dog; details: Chronic toxicity, beagle, Oral, Feed, dose end: 52 week, group: systemic
[7] = system: rat; details: Combined chronic toxicity/carcinogenicity, fischer, Oral, [Not Specified], dose end: 24 month, group: systemic
[8] = system: dog; details: Subchronic oral toxicity in nonrodent, beagle, Feed, dose end: 13 week, group: systemic
[9] = system: rat; details: Subchronic oral toxicity in rodents, fischer, Feed, dose end: 90 day, group: systemic, systemic / clinical chemistry / thyroxine (t4) / thyroxine (t4), total + systemic / clinical chemistry / triiodothyronine (t3) / …
[10] = system: dog; details: Subchronic oral toxicity in nonrodent, beagle, Capsule, dose end: 13 week, group: systemic, systemic / clinical chemistry / creatinine / creatinine + systemic / clinical chemistry / urea nitrogen / urea nitrogen + systemic / in life…
[11] = system: mouse; details: Subchronic oral toxicity in rodents, b6c3f1, Feed, dose end: 90 day, group: systemic
[12] = system: rat; details: Prenatal developmental toxicity study, fischer, Oral, Gavage/Intubation, dose end: 15 GD
[13] = system: mouse; details: Combined chronic toxicity/carcinogenicity; b6c3f1; Oral; Feed; dose end: 104 week; group: systemic; systemic / organ weight / kidney / absolute + systemic / organ weight / kidney / relative to body weight + systemic / pathology microscopic…
[14] = system: mouse; details: Carcinogenicity; b6c3f1; Oral; Feed; dose end: 103 week; group: systemic; systemic / in life observation / clinical signs / alopecia + systemic / in life observation / clinical signs / aggressive behavior
[15] = system: mouse; details: Subchronic oral toxicity in rodents, b6c3f1, Feed, dose end: 13 week, group: systemic, systemic / in life observation / mortality / mortality
[16] = system: rat; details: Subchronic inhalation toxicity, long evans, Whole-Body, dose end: 58 day, group: systemic, systemic / in life observation / clinical signs / abnormal movements
[17] = system: rat; details: Subchronic oral toxicity in rodents, long evans, Feed, dose end: 96 day, group: systemic, systemic / in life observation / body weight / body weight gain + systemic / in life observation / food consumption / food efficiency
[18] = system: rat; details: Subchronic oral toxicity in rodents, fischer, Feed, dose end: 13 week, group: systemic, systemic / in life observation / body weight / body weight gain
[19] = system: rat; details: Subchronic oral toxicity in rodents, sprague dawley, Feed, dose end: 90 day, group: systemic, systemic / in life observation / body weight / body weight + systemic / in life observation / body weight / body weight gain + systemic / in…
[20] = system: rat; details: Combined chronic toxicity/carcinogenicity; sprague dawley; Oral; Feed; dose end: 104 week; group: systemic; systemic / in life observation / clinical signs / convulsions
[21] = system: dog; details: Sub-acute repeat dose toxicity, beagle, Oral, Gavage/Intubation, dose end: 4 week, group: systemic
[22] = system: mouse; details: Subchronic oral toxicity in rodents, cd1, Gavage/Intubation, dose end: 90 day, group: systemic
[23] = system: rabbit; details: Prenatal developmental toxicity study, himalayan, Oral, Gavage/Intubation, dose end: 18 GD
[24] = system: rabbit; details: Prenatal developmental toxicity study; himalayan; Oral; Gavage/Intubation; dose end: 18 GD; group: maternal; systemic / in life observation / body weight / body weight gain + systemic / in life observation / food consumption / food consumption
[25] = system: rat; details: Prenatal developmental toxicity study, sprague dawley, Oral, Gavage/Intubation, dose end: 18 GD
[26] = system: rat; details: Prenatal developmental toxicity study, sprague dawley, Oral, Gavage/Intubation, dose end: 18 GD; remark: listed apart in the source
[27] = system: rat; details: Sub-acute repeat dose toxicity, sprague dawley, Oral, Gavage/Intubation, dose end: 4 week, group: systemic
[28] = group: developmental, developmental / developmental malformation / bone / [other] + developmental / developmental malformation / bone / fused + developmental / …
[29] = group: developmental, systemic / in life observation / body weight / fetal weight
[30] = group: maternal, systemic / in life observation / body weight / body weight gain
[31] = systemic / pathology gross / lymph node / enlarged
[32] = systemic / pathology microscopic / stomach / edema + systemic / pathology microscopic / stomach / hyperkeratosis + systemic / pathology …
[33] = systemic / pathology gross / liver / foci
[34] = systemic / pathology gross / liver / foci + systemic / pathology gross / stomach / thickened + systemic / pathology microscopic / liver / …
[35] = systemic / pathology microscopic / kidney / hyaline droplet + systemic / pathology microscopic / kidney / protein + systemic / pathology …
[36] = systemic / pathology microscopic / stomach / hyperkeratosis + systemic / pathology microscopic / liver / hypertrophy + systemic / pathology …
[37] = systemic / clinical chemistry / alanine aminotransferase (alt/sgpt) / alanine aminotransferase (alt/sgpt) + systemic / clinical chemistry / …
[38] = systemic / in life observation / body weight / body weight gain + systemic / pathology microscopic / kidney / pigmentation
[39] = systemic / clinical chemistry / thyroxine (t4) / thyroxine (t4), total + systemic / organ weight / thyroid gland / absolute + systemic / …
[40] = systemic / pathology gross / thyroid gland / mass
[41] = systemic / in life observation / body weight / body weight + systemic / in life observation / body weight / body weight gain + systemic / in…
[42] = systemic / pathology microscopic / kidney / [other] + systemic / pathology microscopic / liver / nuclear alteration + systemic / pathology …
[43] = group: developmental, developmental / developmental malformation / bone / full supernumerary + developmental / developmental malformation / bone / incomplete …
[44] = systemic / clinical chemistry / alkaline phosphatase (alp/alk) / alkaline phosphatase (alp/alk) + systemic / hematology / blood clotting / …
[45] = systemic / hematology / blood clotting / blood clotting - prothrombin time + systemic / hematology / reticulocyte / reticulocyte
[46] = systemic / in life observation / body weight / body weight + systemic / organ weight / brain / relative to body weight + systemic / organ …
[47] = systemic / in life observation / body weight / body weight + systemic / organ weight / liver / relative to body weight + systemic / …
[48] = group: developmental, developmental / developmental malformation / bone / delayed ossification + developmental / developmental malformation / lung / [other]
[49] = group: developmental, developmental / developmental malformation / bone / delayed ossification + developmental / developmental malformation / lung / [other] + …
[50] = group: maternal, systemic / in life observation / body weight / body weight + systemic / in life observation / food consumption / food consumption
[51] = group: developmental, developmental / developmental malformation / bone / incomplete ossification
[52] = group: maternal, systemic / in life observation / body weight / body weight + systemic / in life observation / food consumption / food consumption + systemic…
[53] = systemic / hematology / hematocrit (hct) / hematocrit (hct) + systemic / hematology / hemoglobin (hgb) / hemoglobin (hgb)
[54] = systemic / hematology / hematocrit (hct) / hematocrit (hct) + systemic / hematology / hemoglobin (hgb) / hemoglobin (hgb) + systemic / in …

[Cu+2].[O-]/N=[N+](\[O-])C1CCCCC1.[O-]/N=[N+](\[O-])C1CCCCC1
LOAEL [1, 28]: 30 mg/kg/day | NOAEL [1, 28]: 10 mg/kg/day | LEL [1, 29]: 10 mg/kg/day | NEL [1, 29]: < 10 mg/kg/day | LEL [1, 30]: 10 mg/kg/day | NEL [1, 30]: < 10 mg/kg/day | LOAEL ([1]; group: maternal, systemic / in life observation / body weight / body weight gain + systemic / in life observation / food consumption / food consumption): 30 mg/kg/day | NOAEL ([1]; group: maternal, systemic / in life observation / body weight / body weight gain + systemic / in life observation / food consumption / food consumption + …): 10 mg/kg/day | LEL [2, 31]: 6 mg/kg/day | NEL [2, 31]: < 6 mg/kg/day | LOAEL [2, 32]: 33 mg/kg/day | NOAEL [2, 32]: 6 mg/kg/day | LEL [3]: 69 mg/kg/day | LOAEL [3]: 69 mg/kg/day | NEL [3]: 26 mg/kg/day | NOAEL [3]: 26 mg/kg/day | LEL [4, 33]: 6.1 mg/kg/day | NEL [4, 33]: < 6.1 mg/kg/day | LOAEL [4, 34]: 61 mg/kg/day | NOAEL [4, 34]: 18.3 mg/kg/day | LOAEL [5, 35]: 140 mg/kg/day | NOAEL [5, 35]: 35 mg/kg/day | LEL [5, 36]: 125 mg/kg/day | NEL [5, 36]: < 125 mg/kg/day

O=C(O)COc1ccc(Cl)cc1Cl [2,4-Dichlorophenoxyacetic acid]
LOAEL [6, 37]: 5 mg/kg/day | NOAEL [6, 37]: 1 mg/kg/day | LEL [6, 38]: 1 mg/kg/day | NEL [6, 38]: < 1 mg/kg/day | LOAEL [7, 39]: 73.1 mg/kg/day | NOAEL [7, 39]: 4.89 mg/kg/day | LEL [7, 40]: 4.89 mg/kg/day | NEL [7, 40]: < 4.89 mg/kg/day | LEL [8, 41]: 0.5 mg/kg/day | NEL [8, 41]: < 0.5 mg/kg/day | NOAEL [8, 41]: 1 mg/kg/day | LOAEL ([8]; systemic / in life observation / body weight / body weight gain + systemic / clinical chemistry / alanine aminotransferase (alt/sgpt) / …): 3.75 mg/kg/day | LEL [9]: 100 mg/kg/day | LOAEL [9]: 100 mg/kg/day | NEL [9]: 15 mg/kg/day | NOAEL [9]: 15 mg/kg/day | LEL [10]: 3 mg/kg/day | LOAEL [10]: 3 mg/kg/day | NEL [10]: 1 mg/kg/day | NOAEL [10]: 1 mg/kg/day | LEL ([11]; systemic / clinical chemistry / thyroxine (t4) / thyroxine (t4), free + systemic / in life observation / food consumption / food consumption): 98.2 mg/kg/day | LOAEL [11, 42]: 293 mg/kg/day | NEL [11, 42]: 14.7 mg/kg/day | NOAEL [11, 42]: 98.2 mg/kg/day | LEL [12, 43]: 75 mg/kg/day | LOAEL [12, 43]: 75 mg/kg/day | NEL [12, 43]: 25 mg/kg/day | NOAEL [12, 43]: 25 mg/kg/day | LEL [12, 30]: 75 mg/kg/day | LOAEL [12, 30]: 75 mg/kg/day | NEL [12, 30]: 25 mg/kg/day | NOAEL [12, 30]: 25 mg/kg/day | LEL [13]: 62.5 mg/kg/day | LOAEL [13]: 62.5 mg/kg/day | NEL [13]: 5 mg/kg/day | NOAEL [13]: 5 mg/kg/day

COC(=O)c1ccc(C(=O)OC)cc1 [Dimethyl terephthalate]
LEL [14]: 375 mg/kg/day | LOAEL [14]: > 750 mg/kg/day | NEL [14]: < 375 mg/kg/day | NOAEL [14]: ≥ 750 mg/kg/day | LEL [15]: 375 mg/kg/day | LOAEL [15]: > 3000 mg/kg/day | NEL [15]: 262 mg/kg/day | NOAEL [15]: ≥ 3000 mg/kg/day | LEL [16]: 4 mg/kg/day | LOAEL [16]: > 4 mg/kg/day | NEL [16]: 0.7 mg/kg/day | NOAEL [16]: ≥ 4 mg/kg/day | LEL [17]: 500 mg/kg/day | LOAEL [17]: > 500 mg/kg/day | NEL [17]: 250 mg/kg/day | NOAEL [17]: ≥ 500 mg/kg/day | LEL [18]: 500 mg/kg/day | LOAEL [18]: 500 mg/kg/day | NEL [18]: 250 mg/kg/day | NOAEL [18]: 250 mg/kg/day

N#Cc1nn(-c2c(Cl)cc(C(F)(F)F)cc2Cl)c(N)c1C(F)(F)F [Fipronil-desulfinyl]
LEL [19]: 0.594 mg/kg/day | LOAEL [19]: 0.594 mg/kg/day | NEL [19]: 0.177 mg/kg/day | NOAEL [19]: 0.177 mg/kg/day | LEL [20]: 0.032 mg/kg/day | LOAEL [20]: 0.032 mg/kg/day | NEL [20]: < 0.032 mg/kg/day | NOAEL [20]: < 0.032 mg/kg/day

OC12N=C(c3ccccc3)SC1Cc1cc(Cl)ccc12 (stereo not drawn) [HMR1426]
LOAEL [21, 44]: > 630 mg/kg/day | NOAEL [21, 44]: ≥ 630 mg/kg/day | LEL [21, 45]: 63 mg/kg/day | NEL [21, 45]: < 63 mg/kg/day | LOAEL [22, 46]: > 1600 mg/kg/day | NOAEL [22, 46]: ≥ 1600 mg/kg/day | LEL [22, 47]: 400 mg/kg/day | NEL [22, 47]: < 400 mg/kg/day | LEL [23, 48]: 62.5 mg/kg/day | NEL [23, 48]: < 62.5 mg/kg/day | LOAEL [23, 49]: > 1000 mg/kg/day | NOAEL [23, 49]: ≥ 1000 mg/kg/day | LEL [23, 50]: 62.5 mg/kg/day | LOAEL [23, 50]: > 1000 mg/kg/day | NEL [23, 50]: < 62.5 mg/kg/day | NOAEL [23, 50]: ≥ 1000 mg/kg/day | LEL [24]: 500 mg/kg/day | LOAEL [24]: > 1000 mg/kg/day | NEL [24]: < 500 mg/kg/day | NOAEL [24]: ≥ 1000 mg/kg/day | LEL [25, 29]: 1000 mg/kg/day | LOAEL [25, 29]: 1000 mg/kg/day | NEL [25, 29]: 500 mg/kg/day | NOAEL [25, 29]: 500 mg/kg/day | LEL [25, 50]: 500 mg/kg/day | LOAEL [25, 50]: 500 mg/kg/day | NEL [25, 50]: < 500 mg/kg/day | NOAEL [25, 50]: < 500 mg/kg/day | LEL [26, 51]: 315 mg/kg/day | LOAEL [26, 51]: 315 mg/kg/day | NEL [26, 51]: 100 mg/kg/day | NOAEL [26, 51]: 100 mg/kg/day | LEL [26, 50]: 100 mg/kg/day | NEL [26, 50]: < 100 mg/kg/day | LOAEL [26, 52]: 315 mg/kg/day | NOAEL [26, 52]: 100 mg/kg/day | LEL [27, 53]: 31.5 mg/kg/day | NEL [27, 53]: < 31.5 mg/kg/day | LOAEL [27, 54]: 315 mg/kg/day | NOAEL [27, 54]: 31.5 mg/kg/day
